46 compounds from patent US20250171459A1, “2-METHYL-4',5'-DIHYDROSPIRO[PIPERIDINE-4,7'-THIENO[2,3-C]PYRAN] DERIVATIVES AS INHIBITORS OF APOL1 AND METHODS OF USING SAME” (Vertex Pharmaceuticals Incorporated, priority 2022, published 2025) can be followed below.

This assay addresses T1, APOL1 (Homo sapiens, UniProt O14791).
T1 sequence (O14791 1-398 S342G/I384M): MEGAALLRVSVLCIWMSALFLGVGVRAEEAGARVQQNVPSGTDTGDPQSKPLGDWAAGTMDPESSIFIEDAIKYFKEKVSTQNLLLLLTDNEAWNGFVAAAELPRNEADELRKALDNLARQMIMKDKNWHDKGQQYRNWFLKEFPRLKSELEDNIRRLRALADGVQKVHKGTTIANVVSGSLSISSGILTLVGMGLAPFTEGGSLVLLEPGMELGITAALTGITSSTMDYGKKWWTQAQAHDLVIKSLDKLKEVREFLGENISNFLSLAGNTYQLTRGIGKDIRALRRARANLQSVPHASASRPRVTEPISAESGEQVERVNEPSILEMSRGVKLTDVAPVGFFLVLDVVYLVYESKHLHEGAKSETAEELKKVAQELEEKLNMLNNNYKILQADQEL
Nature of the assay: MultiTox-Fluor Multiplex Cytotoxicity Assay in tet-inducible APOL1 T-REx-HEK293 cells (cell rescue, ratio of dead to live cells). The assay is classed as cell-based. Particulars: tet-inducible transgenic APOL1 T-REx-HEK293 cell lines, 50 ng/mL tet, 24 hours; read-out: IP50 (i.e., IC50 for cell proliferation). The gist of the method:
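T-REx-HEK293 cells with tet-inducible APOL1 were treated with compound (10 μM top, 10-point 3-fold dilution, duplicate) plus 50 ng/mL tetracycline for 24 h at 37° C, in DMEM with 2% tet-free FBS. MultiTox-Fluor protease signals gave a dead/live ratio, normalized to no tet (100% viability) and tet alone (0%).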
As to `CCc1cc2c(s1)CCO[C@@]21CCN(CC2CN(C(=O)c3nnc(C)o3)C2)[C@@H](C)C1` [Compound 476], the IC50 was under 0.1 µM.

Consider `CCc1cc2c(s1)CCO[C@@]21CCN(CC2CN(C(=O)CN3CCOC3=O)C2)[C@@H](C)C1` [Compound 477], for which the IC50 was under 0.1 µM.

Turning to `CCc1cc2c(s1)CCO[C@@]21CCN(CC2CN(C(=O)C3CNC(=O)O3)C2)[C@@H](C)C1` (stereo partly shown) [Compound 478], the IC50 was in the range of 0.1 to 0.5 µM.

As for `CCc1cc2c(s1)CCO[C@@]21CCN(CC2CN(C(=O)c3cc(CO)n[nH]3)C2)[C@@H](C)C1` [Compound 479], the IC50 is under 0.1 µM.

Regarding `CCc1cc2c(s1)CCO[C@@]21CCN(CC2CN(C(=O)CNC(C)=O)C2)[C@@H](C)C1` [Compound 480], the IC50 lay within 0.1 to 0.5 µM.

On to `CCc1cc2c(s1)CCO[C@@]21CCN(CC2CN(C(=O)[C@H](C)NC(C)=O)C2)[C@@H](C)C1` [Compound 481], for which the IC50 was 0.1 to 0.5 µM.

For the compound `CCc1cc2c(s1)CCO[C@@]21CCN(CC2CN(C(=O)C(=O)c3cnc[nH]3)C2)[C@@H](C)C1` [Compound 482], the IC50 was under 0.1 µM.

Turning to `CCc1cc2c(s1)CCO[C@@]21CCN(CC2CN(C(=O)Cn3cncn3)C2)[C@@H](C)C1` [Compound 483], the IC50 is 0.1 to 0.5 µM.

On to `CCc1cc2c(s1)CCO[C@@]21CCN(CC2CN(C(=O)C3CCNC3=O)C2)[C@@H](C)C1` (stereo partly shown) [Compound 484], for which the IC50 is under 0.1 µM.

In the case of `CCc1cc2c(s1)CCO[C@@]21CCN(CC2CN(C(=O)c3ccc(=O)[nH]c3)C2)[C@@H](C)C1` [Compound 485], the IC50 was under 0.1 µM.

As for `CCc1cc2c(s1)CCO[C@@]21CCN(CC2CN(C(=O)c3n[nH]c(=O)[nH]3)C2)[C@@H](C)C1` [Compound 486], the IC50 was in the range of 0.1 to 0.5 µM.

For the compound `CCc1cc2c(s1)CCO[C@@]21CCN(CC2CN(C(=O)[C@H]3CCC(=O)N3)C2)[C@@H](C)C1` [Compound 487], the IC50 fell in the range of 0.1 to 0.5 µM.

Consider `CCc1cc2c(s1)CCO[C@@]21CCN(CC2CN(C(=O)Cc3sc(O)nc3O)C2)[C@@H](C)C1` [Compound 488], for which the IC50 is under 0.1 µM.

Turning to `CCc1cc2c(s1)CCO[C@@]21CCN(CC2CN(C(=O)N(C)C)C2)[C@@H](C)C1` [Compound 490], the IC50 lay within 0.5 to 1 µM.

With `CCc1cc2c(s1)CCO[C@@]21CCN(CC2CN(S(=O)(=O)CC)C2)[C@@H](C)C1` [Compound 491, (2′S,4R)-2-ethyl-1′-[(1-ethylsulfonylazetidin-3-yl)methyl]-2′-methyl-spiro[6,7-dihydrothieno[3,2-c]pyran-4,4′-piperidine]], the IC50 lay in the range of 0.1 to 0.5 µM.

Turning to `CCc1cc2c(s1)CCO[C@@]21CCN(CC2CN(S(=O)(=O)CCO)C2)[C@@H](C)C1` [Compound 492], the IC50 was 0.1 to 0.5 µM.

As for `CCc1cc2c(s1)CCO[C@@]21CCN(CC2CN(S(=O)(=O)c3ccccc3)C2)[C@@H](C)C1` [Compound 493], the IC50 was 0.5 to 1 µM.

As for `CCc1cc2c(s1)CCO[C@@]21CCN(CC2CN(S(=O)(=O)C3CCOCC3)C2)[C@@H](C)C1` [Compound 494], the IC50 was 0.1 to 0.5 µM.

As for `CCc1cc2c(s1)CCO[C@@]21CCN(CC2CN(S(=O)(=O)c3cnn4c3OCCC4)C2)[C@@H](C)C1` [Compound 495], the IC50 was 0.5 to 1 µM.

For the compound `CCc1cc2c(s1)CCO[C@@]21CCN(CC2CN(S(=O)(=O)c3c[nH]cn3)C2)[C@@H](C)C1` [Compound 496], the IC50 fell in the range of 0.5 to 1 µM.

As to `CCC1=CC2=C(CCO[C@@]23CCN(Cc2cn(CCS(C)(=O)=O)nn2)[C@@H](C)C3)S1(=O)=O` [Compound 497, (2′S,4R)-2-ethyl-2′-methyl-1′-[[1-(2-methylsulfonylethyl)triazol-4-yl]methyl]spiro[6,7-dihydrothieno[3,2-c]pyran-4,4′-piperidine]1,1-dioxide], the IC50 was in the range of 0.1 to 0.5 µM.

For the compound `CCc1cc2c(s1)CCOC21CCN(Cc2cnn(C)c2)C(C)(C)C1` (stereo not shown) [Compound 498, 2-ethyl-2′,2′-dimethyl-1′-[(1-methylpyrazol-4-yl)methyl]spiro[6,7-dihydrothieno[3,2-c]pyran-4,4′-piperidine]], the IC50 lay in the range of 0.5 to 1 µM.

`Cc1cc2c(s1)CCO[C@@]21CCN(CC(O)C(N)=O)[C@@H](C)C1` (stereo partly shown) [Compound 501]: the IC50 lay in the range of 0.1 to 0.5 µM.

Take `Cc1cc2c(s1)CCO[C@@]21CCN(CC(O)C(N)=O)[C@@H](C)C1` (stereo partly shown) [Compound 502]: the IC50 lay within 0.1 to 0.5 µM.

For `Cc1cc2c(s1)CCO[C@@]21CCN(CC(O)C(N)=O)[C@@H](C)C1` (stereo partly shown) [Compound 503], the IC50 fell in the range of 0.1 to 0.5 µM.

Regarding `Cc1cc2c(s1)CCO[C@@]21CCN(C2CCCC2O)[C@@H](C)C1` (stereo partly shown) [Compound 504], the IC50 is 0.1 to 0.5 µM.

Take `Cc1cc2c(s1)CCO[C@@]21CCN(C2CCCC2O)[C@@H](C)C1` (stereo partly shown) [Compound 505]: the IC50 is under 0.1 µM.

Turning to `C[C@H]1C[C@@]2(CCN1CCO)OCCc1sc(Cl)cc12` [Compound 506], the IC50 was in the range of 0.1 to 0.5 µM.

Regarding `C[C@H](O)CN1CC[C@]2(C[C@@H]1C)OCCc1sc(Cl)cc12` [Compound 507], the IC50 was 0.1 to 0.5 µM.

In the case of `C[C@H]1C[C@@]2(CCN1C[C@H](O)C(N)=O)OCCc1sc(Cl)cc12` [Compound 508, (2S)-3-[(2′S,4R)-2-chloro-2′-methyl-spiro[6,7-dihydrothieno[3,2-c]pyran-4,4′-piperidine]-1′-yl]-2-hydroxy-propanamide], the IC50 was 0.1 to 0.5 µM.

Consider `C[C@H]1C[C@@]2(CCN1C[C@@H](O)C(N)=O)OCCc1sc(Cl)cc12` [Compound 509, (2R)-3-[(2′S,4R)-2-chloro-2′-methyl-spiro[6,7-dihydrothieno[3,2-c]pyran-4,4′-piperidine]-1′-yl]-2-hydroxy-propanamide], for which the IC50 is 0.1 to 0.5 µM.

For the compound `Cc1cc2c(s1)CCO[C@@]21CCN(Cc2cn(CCS(C)(=O)=O)nn2)[C@@H](C)C1` [Compound 510, (2′S)-2,2′-dimethyl-1′-[[1-(2-methylsulfonylethyl)triazol-4-yl]methyl]spiro[6,7-dihydrothieno[3,2-c]pyran-4,4′-piperidine]], the IC50 was under 0.1 µM.

As to `C[C@H]1C[C@@]2(CCN1Cc1cn(CCS(C)(=O)=O)nn1)OCCc1sc(Cl)cc12` [Compound 511], the IC50 was under 0.1 µM.

`Cc1sc2c(c1C)[C@]1(CCN(Cc3cn(CCS(C)(=O)=O)nn3)[C@@H](C)C1)OCC2` [Compound 512]: the IC50 was in the range of 0.1 to 0.5 µM.

For the compound `CCCc1cc2c(s1)CCO[C@@]21CCN(Cc2cn(CCS(C)(=O)=O)nn2)[C@@H](C)C1` [Compound 513], the IC50 was in the range of 0.1 to 0.5 µM.

For the compound `CC(C)Cc1cc2c(s1)CCO[C@@]21CCN(Cc2cn(CCS(C)(=O)=O)nn2)[C@@H](C)C1` [Compound 514], the IC50 fell in the range of 0.1 to 0.5 µM.

As for `C[C@H]1C[C@@]2(CCN1Cc1cnc(NC(C)(C)CO)nc1)OCCc1sc(Cl)cc12` [Compound 515, 2-[[5-[[(2′S,4R)-2-chloro-2′-methyl-spiro[6,7-dihydrothieno[3,2-c]pyran-4,4′-piperidine]-1′-yl]methyl]pyrimidin-2-yl]amino]-2-methyl-propan-1-ol], the IC50 is under 0.1 µM.

Turning to `Cc1cc2c(s1)CCO[C@]21CCN(Cc2cnn(CCS(C)(=O)=O)c2)[C@@H](C)C1` [Compound 516, (2′S,4S)-2,2′-dimethyl-1′-[[1-(2-methylsulfonylethyl)pyrazol-4-yl]methyl]spiro[6,7-dihydrothieno[3,2-c]pyran-4,4′-piperidine]], the IC50 was under 0.1 µM.

As for `Cc1cc2c(s1)CCO[C@@]21CCN(Cc2cnn(CCS(C)(=O)=O)c2)[C@H](C)C1` [Compound 517], the IC50 lay in the range of 0.1 to 0.5 µM.

Take `C[C@H]1C[C@@]2(CCN1Cc1cnn(CCS(C)(=O)=O)c1)OCCc1sc(Cl)cc12` [Compound 518]: the IC50 is under 0.1 µM.

Take `Cc1sc2c(c1C)[C@]1(CCN(Cc3cnn(C)c3)[C@@H](C)C1)OCC2` [Compound 519, (2′S,4R)-2,2′,3-trimethyl-1′-[(1-methylpyrazol-4-yl)methyl]spiro[6,7-dihydrothieno[3,2-c]pyran-4,4′-piperidine]]: the IC50 was under 0.1 µM.

For the compound `CCCc1cc2c(s1)CCO[C@@]21CCN(Cc2cnn(C)c2)[C@@H](C)C1` [Compound 520], the IC50 is under 0.1 µM.

In the case of `CC(C)Cc1cc2c(s1)CCO[C@@]21CCN(Cc2cnn(C)c2)[C@@H](C)C1` [Compound 521], the IC50 was under 0.1 µM.

For the compound `C[C@H]1C[C@@]2(CCN1Cc1cn(CCS(C)(=O)=O)nn1)OCCc1sc(Br)cc12` [Compound 522, (2′S,4R)-2-bromo-2′-methyl-1′-[[1-(2-methylsulfonylethyl)triazol-4-yl]methyl]spiro[6,7-dihydrothieno[3,2-c]pyran-4,4′-piperidine]], the IC50 was under 0.1 µM.

As to `C[C@H]1C[C@@]2(CCN1Cc1cnn(CCS(C)(=O)=O)c1)OCCc1sc(CC(F)F)cc12` [Compound 523, (2′S,4R)-2-(2,2-difluoroethyl)-2′-methyl-1′-[[1-(2-methylsulfonylethyl)pyrazol-4-yl]methyl]spiro[6,7-dihydrothieno[3,2-c]pyran-4,4′-piperidine]], the IC50 was under 0.1 µM.

For the compound `C[C@H]1C[C@@]2(CCN1Cc1cn(CCS(C)(=O)=O)nn1)OCCc1sc(C(F)F)cc12` [Compound 524, (2′S,4R)-2-(difluoromethyl)-2′-methyl-1′-[[1-(2-methylsulfonylethyl)triazol-4-yl]methyl]spiro[6,7-dihydrothieno[3,2-c]pyran-4,4′-piperidine]], the IC50 was under 0.1 µM.
